Source: PMC11508649 (International Journal of Molecular Sciences, 2024)
Like-named read-outs stand apart in the source and are kept apart here. Marks after values point to notes of the source that are not given here.

Tests used:
human 5-HT1A receptor [1] = target: T1, human 5-HT1A receptor (Homo sapiens, UniProt P08908); assay: 5-HT1A receptor radioligand binding ([3H]-8-OH-DPAT, CHO-K1 membranes); conditions: displacement of [3H]-8-OH-DPAT, mean ± SEM of three experiments, NC = not converged
T1 construct: purchased PerkinElmer; host or cells: CHO-K1
T1 sequence (P08908 1-422): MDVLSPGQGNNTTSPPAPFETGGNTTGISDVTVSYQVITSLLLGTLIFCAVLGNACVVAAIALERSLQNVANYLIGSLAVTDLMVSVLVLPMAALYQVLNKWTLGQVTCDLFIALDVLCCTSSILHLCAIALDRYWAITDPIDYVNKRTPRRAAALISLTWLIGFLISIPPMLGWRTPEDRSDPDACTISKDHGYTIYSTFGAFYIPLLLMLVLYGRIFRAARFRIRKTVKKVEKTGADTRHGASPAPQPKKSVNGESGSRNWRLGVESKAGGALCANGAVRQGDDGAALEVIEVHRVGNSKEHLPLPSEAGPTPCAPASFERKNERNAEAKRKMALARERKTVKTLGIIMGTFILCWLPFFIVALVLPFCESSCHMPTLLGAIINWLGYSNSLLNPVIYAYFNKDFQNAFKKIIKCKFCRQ
Method: (§1) Each compound was tested in 6 concentrations from 10–5 to 10–10 M (final concentration).
(§2) All assays were carried out in duplicates.

[2] = target: T2, human serotonin transporter (Homo sapiens, UniProt P31645); assay: Serotonin transporter radioligand binding ([3H]-imipramine, HEK-293 membranes); conditions: displacement of [3H]-imipramine, HEK-293 membranes; mean ± SEM of three experiments; read-out: Ki ± SEM SERT
T2 construct: purchased PerkinElmer; host or cells: HEK-293
T2 sequence (P31645 whole entry): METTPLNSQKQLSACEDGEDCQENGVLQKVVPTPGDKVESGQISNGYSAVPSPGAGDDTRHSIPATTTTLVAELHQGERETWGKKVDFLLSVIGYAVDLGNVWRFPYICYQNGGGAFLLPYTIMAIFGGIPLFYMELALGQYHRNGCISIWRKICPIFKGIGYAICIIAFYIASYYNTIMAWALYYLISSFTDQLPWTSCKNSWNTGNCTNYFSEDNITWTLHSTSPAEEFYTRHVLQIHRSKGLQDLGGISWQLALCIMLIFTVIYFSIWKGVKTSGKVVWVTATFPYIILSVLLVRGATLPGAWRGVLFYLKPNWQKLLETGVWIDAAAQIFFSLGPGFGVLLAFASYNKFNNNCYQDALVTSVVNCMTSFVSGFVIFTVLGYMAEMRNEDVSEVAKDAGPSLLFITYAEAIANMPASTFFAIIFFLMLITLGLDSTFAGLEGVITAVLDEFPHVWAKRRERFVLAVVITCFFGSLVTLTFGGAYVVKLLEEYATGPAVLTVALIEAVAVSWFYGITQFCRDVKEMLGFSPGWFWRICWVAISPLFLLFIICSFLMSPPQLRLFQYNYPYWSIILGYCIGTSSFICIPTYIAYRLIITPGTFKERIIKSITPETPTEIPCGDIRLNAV
Method: as §1, §2

5-HT2A receptor = target: T3, 5-HT2A receptor (Rattus norvegicus, UniProt P14842); assay: 5-HT2A binding assay ([3H]-ketanserin, rat cortex); conditions: read-out: Ki ± SEM 5-HT2A
T3 construct: and for the native 5-HT2A receptor; from tissue; host or cells: rat cortex
T3 sequence (P14842 whole entry): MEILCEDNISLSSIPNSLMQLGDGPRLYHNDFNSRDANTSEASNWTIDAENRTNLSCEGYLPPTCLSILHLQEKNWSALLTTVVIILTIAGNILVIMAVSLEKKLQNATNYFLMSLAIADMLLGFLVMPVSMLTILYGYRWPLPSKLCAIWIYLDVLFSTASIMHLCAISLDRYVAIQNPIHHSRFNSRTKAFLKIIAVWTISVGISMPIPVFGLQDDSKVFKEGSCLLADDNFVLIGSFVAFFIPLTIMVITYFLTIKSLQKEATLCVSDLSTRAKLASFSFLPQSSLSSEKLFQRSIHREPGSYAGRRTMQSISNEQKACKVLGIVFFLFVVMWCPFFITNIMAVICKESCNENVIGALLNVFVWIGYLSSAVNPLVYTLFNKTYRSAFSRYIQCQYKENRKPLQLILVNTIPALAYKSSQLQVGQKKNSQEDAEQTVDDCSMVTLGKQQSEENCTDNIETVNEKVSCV
Method: (§3) Specifically, we assessed the displacement of [^3H]-raclopride, [^3H]-LSD, and [^3H]-5-CT from the cloned human D2L, 5-HT6, and 5-HT7 receptor, respectively, stably expressed in HEK293 cells, and [^3H]-ketanserin from the 5-HT2A receptor from the rat cortex.
Tissue preparations (rat cortex) and competition binding experiments for 5-HT2A receptors were carried out according to a previously described, standard technique using 0.5 nM of [^3H]-ketanserin as the radioligand and 10 μM of methysergide to determine non-specific binding. Following 20 min of incubation, the samples containing receptor homogenates and the investigated compounds (7–9 concentrations run in triplicate) were rapidly filtered under vacuum through GF/B glass fibre filters; the filters were washed extensively with an ice-cold buffer using a Brandel harvester. Bound radioactivity was measured by scintillation counting using a liquid scintillation cocktail. The inhibition constants (Ki) were calculated using the Cheng–Prusoff equation. Results are expressed as the means of at least three separate experiments.

human 5-HT6 receptor = target: T4, human 5-HT6 receptor (Homo sapiens, UniProt P50406); assay: 5-HT6 receptor binding ([3H]-LSD, HEK293 cells); conditions: cloned human receptor in HEK293, read-out: Ki ± SEM 5-HT6
T4 construct: expressed in transfected cells; host or cells: HEK293
T4 sequence (P50406 whole entry): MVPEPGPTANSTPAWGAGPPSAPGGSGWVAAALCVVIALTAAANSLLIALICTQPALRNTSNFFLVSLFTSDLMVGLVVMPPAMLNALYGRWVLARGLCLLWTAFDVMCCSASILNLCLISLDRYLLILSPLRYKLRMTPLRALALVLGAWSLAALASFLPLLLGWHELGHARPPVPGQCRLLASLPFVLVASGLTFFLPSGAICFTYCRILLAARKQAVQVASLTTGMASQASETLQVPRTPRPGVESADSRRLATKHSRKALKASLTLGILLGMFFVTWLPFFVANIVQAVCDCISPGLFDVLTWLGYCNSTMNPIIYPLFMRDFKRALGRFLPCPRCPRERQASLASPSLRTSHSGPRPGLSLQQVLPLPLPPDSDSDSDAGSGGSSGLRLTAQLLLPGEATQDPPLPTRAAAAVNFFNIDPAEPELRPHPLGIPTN
Method: as §3
(§4) For membrane preparation, cells were subcultured in 10 cm-diameter dishes, grown to 90% confluence, washed twice with prewarmed to 37 °C phosphate buffered saline (PBS) and pelleted by centrifugation (200 g) in PBS containing 0.1 mM EDTA and 1 mM dithiothreitol. Prior to membrane preparation, pellets were stored at −80 °C.
(§5) Cell pellets were thawed and homogenised in 20 volumes of assay buffer using an Ultra Turrax tissue homogeniser and centrifuged twice at […] for 20 min at 4 °C, with incubation for 15 min at 37 °C in between. The composition of the assay buffers was as follows: for 5-HT6R, 50 mM Tris-HCl, 0.5 mM EDTA and 4 mM MgCl2; and for 5-HT7bR, 50 mM Tris-HCl, 4 mM MgCl2, 10 μM pargyline and 0.1% ascorbate. All assays were incubated in a total volume of 200 μL in 96-well microtitre plates for 1 h at 37 °C. The process of equilibration was terminated by rapid filtration through Unifilter plates with a 96-well cell harvester, and radioactivity retained on the filters was quantified on a Microbeta plate reader. For displacement studies, the assay samples contained radioligands such as 2 nM [^3H]-LSD (85.2 Ci/mmol for 5-HT6R) or 0.6 nM [^3H]-5-CT (39.2 Ci/mmol) for 5-HT7R. Non-specific binding was defined using 10 μM methiothepine in the 5-HT6R or 5-HT7R binding experiments, respectively. Each compound was tested in triplicate at 7–8 concentrations (10^−11–10^−4 M). The inhibition constants (Ki) were calculated using the Cheng–Prusoff equation. Membrane preparation and general assay procedures for cloned receptors were adjusted to a 96-microwell format based on protocols previously described by us.

human 5-HT7b receptor = target: T5, human 5-HT7b receptor (Homo sapiens, UniProt P34969); assay: 5-HT7 receptor binding ([3H]-5-CT, HEK293 cells); conditions: cloned human receptor in HEK293, read-out: Ki ± SEM 5-TH7
T5 construct: expressed in transfected cells; host or cells: HEK293
T5 sequence (P34969 1-432 limits assumed): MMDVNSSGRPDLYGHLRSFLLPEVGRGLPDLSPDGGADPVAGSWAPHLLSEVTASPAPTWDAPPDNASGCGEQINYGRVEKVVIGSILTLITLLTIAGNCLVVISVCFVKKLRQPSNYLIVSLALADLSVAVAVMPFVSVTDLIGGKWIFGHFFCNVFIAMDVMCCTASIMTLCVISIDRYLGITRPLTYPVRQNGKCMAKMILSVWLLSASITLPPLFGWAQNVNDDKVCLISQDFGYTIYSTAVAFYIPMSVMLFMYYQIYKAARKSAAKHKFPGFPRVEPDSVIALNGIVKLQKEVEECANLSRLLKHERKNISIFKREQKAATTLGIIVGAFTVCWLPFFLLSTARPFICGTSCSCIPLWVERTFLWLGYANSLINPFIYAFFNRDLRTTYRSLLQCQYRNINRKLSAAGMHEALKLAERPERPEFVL
Method: as §3, §4, §5

human D2 receptor = human D2 receptor (Homo sapiens, UniProt P14416); assay: D2 receptor binding assay; conditions: cloned human D2 receptor; read-out: Ki ± SEM D2
Sequence of human D2 receptor (P14416 whole entry): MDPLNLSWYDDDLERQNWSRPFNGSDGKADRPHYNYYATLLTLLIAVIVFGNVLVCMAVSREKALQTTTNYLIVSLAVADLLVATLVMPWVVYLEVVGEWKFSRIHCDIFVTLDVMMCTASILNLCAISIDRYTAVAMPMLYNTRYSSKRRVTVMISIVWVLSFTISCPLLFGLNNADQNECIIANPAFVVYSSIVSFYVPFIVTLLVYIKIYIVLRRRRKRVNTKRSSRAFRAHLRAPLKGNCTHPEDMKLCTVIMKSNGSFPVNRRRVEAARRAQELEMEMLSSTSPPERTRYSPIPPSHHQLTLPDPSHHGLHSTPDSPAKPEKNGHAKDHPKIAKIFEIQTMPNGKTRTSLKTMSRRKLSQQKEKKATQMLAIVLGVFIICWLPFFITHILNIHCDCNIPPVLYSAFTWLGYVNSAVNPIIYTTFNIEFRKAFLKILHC
Method: as §3, §1, §2

[3] = target: human dopamine transporter (Homo sapiens, UniProt Q01959); assay: DAT binding assay ([3H]-WIN 35,428, CHO-K1 membranes)
Sequence of human dopamine transporter (Q01959 whole entry): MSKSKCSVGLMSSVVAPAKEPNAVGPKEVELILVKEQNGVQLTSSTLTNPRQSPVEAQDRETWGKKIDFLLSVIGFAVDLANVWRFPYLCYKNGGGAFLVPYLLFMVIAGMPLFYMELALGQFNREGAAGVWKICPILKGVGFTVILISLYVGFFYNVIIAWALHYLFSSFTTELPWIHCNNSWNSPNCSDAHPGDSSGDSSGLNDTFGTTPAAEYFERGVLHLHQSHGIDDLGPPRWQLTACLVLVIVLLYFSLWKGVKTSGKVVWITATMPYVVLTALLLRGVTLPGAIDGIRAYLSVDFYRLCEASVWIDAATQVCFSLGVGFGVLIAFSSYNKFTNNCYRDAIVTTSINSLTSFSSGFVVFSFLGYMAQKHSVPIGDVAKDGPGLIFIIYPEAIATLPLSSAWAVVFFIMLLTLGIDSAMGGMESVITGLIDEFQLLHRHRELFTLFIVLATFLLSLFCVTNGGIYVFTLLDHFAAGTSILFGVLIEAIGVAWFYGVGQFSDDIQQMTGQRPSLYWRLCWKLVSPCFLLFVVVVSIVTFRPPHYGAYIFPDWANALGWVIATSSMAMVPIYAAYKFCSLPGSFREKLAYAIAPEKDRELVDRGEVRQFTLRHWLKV
Method: (§6) Ten-micromolar stock solutions of tested compounds were prepared in DMSO. […] Each compound was tested in a screening assay at final concentrations of 10 µM and 1 µM. Results were expressed as percent inhibition of radioligand binding. Reference compounds were tested in 8 concentrations from 10^−5 to 10^−12 M (final concentration).
Radioligand binding was performed using membranes from CHO-K1 cells stably transfected with the human dopamine transporter (PerkinElmer, Waltham, MA, USA). All assays were carried out in duplicates. […] The microplate was covered with sealing tape, mixed and incubated for 120 min at 4 °C. The reaction was terminated by rapid filtration through GF/C filter mate pre-soaked with 0.5% polyethyleneimine for 30 min. Ten rapid washes with 200 µL of 50 mM Tris buffer (4 °C, pH 7.4) were performed using the automated harvester system Harvester-96 MACH III FM (Tomtec, Hamden, CT, USA). […] Radioactivity was counted using a MicroBeta2 scintillation counter (PerkinElmer, Turku, Finland). Data were fitted to a one-site curve-fitting equation with Prism 5 (GraphPad Software), and Ki values were estimated using the Cheng–Prusoff equation.

α1-adrenoceptor = assay: ADRA1 receptor binding assay ([3H]-prazosin, rat cortex); conditions: read-out: Ki ± SEM α1
[4] = target: human norepinephrine transporter (Homo sapiens, UniProt P23975); assay: NET binding assay ([3H]-nisoxetine, MDCK membranes)
Sequence of human norepinephrine transporter (P23975 whole entry): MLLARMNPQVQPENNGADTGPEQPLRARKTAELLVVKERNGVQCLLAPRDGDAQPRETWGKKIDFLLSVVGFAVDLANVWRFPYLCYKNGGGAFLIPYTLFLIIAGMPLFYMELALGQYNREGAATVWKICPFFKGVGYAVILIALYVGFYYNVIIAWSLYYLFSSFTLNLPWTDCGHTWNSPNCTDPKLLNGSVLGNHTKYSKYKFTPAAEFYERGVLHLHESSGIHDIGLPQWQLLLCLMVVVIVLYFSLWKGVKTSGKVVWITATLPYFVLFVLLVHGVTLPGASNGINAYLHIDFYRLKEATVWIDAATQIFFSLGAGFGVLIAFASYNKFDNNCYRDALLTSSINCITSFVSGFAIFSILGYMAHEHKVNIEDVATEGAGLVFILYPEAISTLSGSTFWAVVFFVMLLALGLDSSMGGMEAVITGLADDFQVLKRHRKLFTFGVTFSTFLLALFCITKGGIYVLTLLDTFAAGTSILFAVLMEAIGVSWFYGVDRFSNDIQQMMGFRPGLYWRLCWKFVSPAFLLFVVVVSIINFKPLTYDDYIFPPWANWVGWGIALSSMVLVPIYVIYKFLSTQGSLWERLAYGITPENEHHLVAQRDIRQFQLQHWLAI
Method: We performed radioligand binding assays using membranes from CHO-K1 cells stably transfected with human DAT and membranes from MDCK cells stably transfected with human NET. This was accomplished by assessing the displacement of [^3H]-WIN35,428 and [^3H]-nisoxetine from cloned human DAT and NET, respectively.
as §6
Radioligand binding was performed using membranes from MDCK cells stably transfected with the human norepinephrine transporter (PerkinElmer, Waltham, MA, USA). All assays were carried out in duplicates. Measures of 50 µL of working solution of the tested compounds, 50 µL of [^3H]-nisoxetine (final concentration 4 nM) and 150 µL of diluted membranes (3 µg protein per well) prepared in assay buffer (50 mM Tris-HCl, pH 7.4, 120 mM NaCl; 5 mM KCl) were transferred to a polypropylene 96-well microplate using the 96-well pipetting station Rainin Liquidator (MettlerToledo, Beverly, MA, USA). […] The microplate was covered with sealing tape, mixed and incubated for 60 min at 4 °C. The reaction was terminated by rapid filtration through GF/C filter mate pre-soaked with 0.5% polyethyleneimine for 30 min. Ten rapid washes with 200 µL of 50 mM Tris buffer (4 °C, pH 7.4) were performed using the automated harvester system Harvester-96 MACH III FM (Tomtec, Hamden, CT, USA). […] Radioactivity was counted using a MicroBeta2 scintillation counter (PerkinElmer, Turku, Finland). Data were fitted to a one-site curve-fitting equation with Prism 5 (GraphPad Software), and Ki values were estimated using the Cheng–Prusoff equation.

human 5-HT1A receptor [5] = target: T1, human 5-HT1A receptor; conditions: previously described 1H-indole analogues; read-out: Ki ± SEM 5-HT1A; cited from earlier work
[6] = target: T2, human serotonin transporter; conditions: previously described 1H-indole analogues; read-out: Ki ± SEM SERT; cited from earlier work

With O=C1CC(c2c[nH]c3ccc(F)cc23)C(=O)N1CCCN1CC=C(c2c[nH]c3ncccc23)CC1 (stereo not drawn) [Compound 11, 1-(3-(4-(1H-Pyrrolo[2,3-b]pyridin-3-yl)-3,6-dihydropyridin-1(2H)-yl)propyl)-3-(5-fluoro-1H-indol-3-yl)pyrrolidine-2,5-dione] the Ki (human 5-HT1A receptor [1]) was 128 nM, the Ki [2] was 9.2 ± 0.6 nM and the Ki (5-HT2A receptor) was 1160 ± 96 nM. It also gave a Ki (human 5-HT6 receptor) of 1290 ± 147 nM, a Ki (human 5-HT7b receptor) of 1130 ± 89 nM and a Ki (human D2 receptor) of 51 ± 6 nM. For the same compound, the Ki [3] was 288 ± 25.2 nM and the “Selectivity Ratio hDAT/hSERT” value ([3]; ratio of Ki values) was 31.3.
With O=C1CC(c2c[nH]c3ccccc23)C(=O)N1CCCCN1CC=C(c2c[nH]c3ncccc23)CC1 (stereo not drawn) [Compound 4, 1-(4-(4-(1H-Pyrrolo[2,3-b]pyridin-3-yl)-3,6-dihydropyridin-1(2H)-yl)butyl)-3-(1H-indol-3-yl)pyrrolidine-2,5-dione] the Ki (human 5-HT1A receptor [1]) was 660 ± 60.2 nM, the Ki [2] was 47 ± 5 nM and the Ki (5-HT2A receptor) was 1400 ± 71 nM. The Ki (human 5-HT6 receptor) was 1690 ± 186 nM, the Ki (human 5-HT7b receptor) was 1420 ± 172 nM and the Ki (human D2 receptor) was 78 ± 7 nM. For the same compound, the Ki (α1-adrenoceptor) was 87 ± 2 nM, the Ki [4] was 167 ± 13.8 nM and the “Selectivity Ratio hNET/hSERT” value ([4]; ratio of Ki values) was 3.5.
With O=C1CC(c2c[nH]c3ccc(F)cc23)C(=O)N1CCCN1CC=C(c2c[nH]c3ccccc23)CC1 (stereo not drawn) [Compound 20] the Ki (5-HT2A receptor) was 237 ± 17 nM, the Ki (human 5-HT6 receptor) was 257 ± 17 nM and the Ki (human 5-HT7b receptor) was 30 ± 4 nM. The Ki (human D2 receptor) was 56 ± 7 nM, the Ki (human 5-HT1A receptor [5]) was 190 ± 8.5 nM and the Ki [6] was 1.5 ± 0.2 nM.
COc1ccc2[nH]cc(C3CC(=O)N(CCCN4CC=C(c5c[nH]c6ncccc56)CC4)C3=O)c2c1 (stereo not drawn) [Compound 8, 1-(3-(4-(1H-Pyrrolo[2,3-b]pyridin-3-yl)-3,6-dihydropyridin-1(2H)-yl)propyl)-3-(5-methoxy-1H-indol-3-yl)pyrrolidine-2,5-dione] showed a Ki [2] of 23 ± 2.8 nM, a Ki (5-HT2A receptor) of 727 ± 43 nM and a Ki (human 5-HT6 receptor) of 2970 ± 138 nM. The Ki (human 5-HT7b receptor) was 1530 ± 76 nM, the Ki (α1-adrenoceptor) was 265 ± 6.5 nM and the “hNET screening procedure, displacement %” value ([4]; at 1 µM) was 43% ^a. It also gave a Ki [3] of 663 ± 15 nM.
